Read-outs that look alike come from different tables or passages of the source. A value given as a limit tells only on which side of the number the result lay.

Drawing on patent publication US10174015B2, “Substituted heterocyclic derivative, preparation method and use thereof” (Xiamen University, priority 2014, dated 2019), this text covers half-life for 2 compounds.

This data set is described as follows: Stability assays at acidic and basic conditions. Type of data set: physicochemical. The method, then:
The sample containing the compound to be tested was then incubated in a constant temperature shaker at 37° C. At different time points (0 min, 10 min, 30 min, 1 h, 2 h, 4 h, 6 h, 12 h, 24 h), 50 μL sample was taken and added to 150 μL precooled methanol (containing the internal standard E8, 1 nmol/sample), wherein three parallel samples were prepared for each time point. The samples were then vertically mixed well, and transferred to a sample vial. LC-MS/MS was used to measure the peak area at different time points, Analyst® version 1.4.1. software was used to analyze chromatographic peak, and the content of the target compound was calculated based on the standard curve.

Setting [1] is: PBS pH 5.0, 37° C., read-out: Half-life pH 5.0.
Setting [2] is: PBS pH 7.4, 37° C., read-out: Half-life pH 7.4.

As to `O=C(CCCCCc1cccc(Cl)c1)N1CCOC1=O` [Compound 9, 3-Chlorophenylhexanoyl Oxazolidinone], the half-life (in general, the time in which the quantity being followed falls by half) at 1 μM is, setting by setting: under setting [1], greater than 24 h; under setting [2], greater than 24 h.
As for `O=C(CCCCCc1ccccc1)N1CCOC1=O` [Compound 2, Phenylhexanoyl Oxazolidinone], the half-life at 1 μM reads like this: under setting [1], greater than 24 h; under setting [2], greater than 24 h.
